Reference: patent US10570179B2, “Substituted urea depsipeptide analogs as activators of the CLPP endopeptidase” (priority 2016, dated 2020)
Numbered stars: 1 amine (or outer) side, 2 acyl side, 3 side chain; on linkers, the order of the positions; unused ones are H or OH. Bridge positions count the residues as written; N and C are the ends. Square brackets hold non-standard residues; d marks the D form. Peptide text beside a SMILES is read from it. * marks the point of attachment. Piperazine(2S-CO,4-Me) = CN1CCN[C@H](C(=O)O)C1; Phe(3,5-Me2) = Cc1cc(C)cc(C[C@H](N)C(=O)O)c1; X6 = O=C([C@@H]1CS(=O)(=O)CCN1[*:1])[*:2]; Phe(3-OMe) = COc1cccc(C[C@H](N)C(=O)O)c1; Phe(3-Me) = Cc1cccc(C[C@H](N)C(=O)O)c1; Pro(4S-Me) = C[C@@H]1CN[C@H](C(=O)O)C1; NH(4-Cl-2-F-phenyl) = Fc1cc(Cl)ccc1N*; Pro(4R-Me) = C[C@H]1CN[C@H](C(=O)O)C1; NH(4-Me-phenyl) = Cc1ccc(N*)cc1; aThr = C[C@H](O)[C@H](N)C(=O)O; Pip = O=C(O)[C@@H]1CCCCN1; CO = O=C([*:1])[*:2]

Legend:
[1] = Plasma protein binding, rapid equilibrium dialysis; type: in vitro ADME, human; details: 10 μM
Experimental: This assay determines plasma protein binding of a drug/compound and free drug concentration in plasma using rapid equilibrium dialysis, which allow the aqueous component of plasma containing the free drug/compound through a dialysis membrane (MWCO˜8,000).
Solutions were prepared at 10 mM in DMSO. Dulbecco's phosphate buffered saline (DPBS; pH 7.4) was obtained from Invitrogen (Carlsbad, Calif.). Single-Use RED (rapid equilibrium dialysis) device was obtained from Thermo scientific (Rockford, Ill.). Human plasma was obtained from Innovative Research INC (Novi, Michigan, Ill).
Sample preparation for plasma protein binding was modified from Waters' method. (Waters et al. (2008) J. Pharm. Sci. 97(10): 4586-95). The Teflon base plate with the RED inserts (MWCO 8 K) were allowed to use without any pre-condition the membrane inserts. Human plasma was thawed and centrifuged at 1000 rpm for 2 min to remove any particulates. Each compound was prepared at 10 μM in human plasma. This was done by adding 1 μL, of drug solution (10 mM in DMSO) to 1000 μL, of human plasma (0.1% DMSO). Spiked plasma solutions (300 μL) were placed into the sample chamber (indicated by the red ring) and 500 μL, of DPBS into the adjacent chamber. The plate was sealed and incubated at 37° C. on an orbital shaker (100 rpm) for 4 hours. After incubation, the seal was removed from the RED plate and the volume of the insert confirmed—little to no volume change occurred. Aliquots (50 μL) were removed from each side of the insert and dispensed into a 96-well deep plate. An equal volume of blank plasma or DPBS was added to the required wells to create analytically identical sample matrices (matrix matching). To each sample 200 μL, of ACN containing 4 μg/mL warfarin IS was added. All of the plates were sealed and mixed well at 600 rpm for 10 min and were centrifuged at 4000 rpm for 20 min. The supernatants (120 μL) were transferred to analytical plates for analysis by LCMS. Conditions for Waters ACQUITY-UPLC-MS-UV system were described separately. The test compound concentrations were quantified in both buffer and plasma chambers via peak areas relative to the internal standard. The percentage of the test compound bound to plasma was calculated on following equations: % Free=(Concentration buffer chamber/concentration plasma chamber)×100% and % Bound=100%-% Free.

S. aureus ΔClpP = assay: Minimal inhibitory concentration, microbroth dilution; type: cell-based, Staphylococcus aureus; details: MIC; ClpP inactivated
How it was run: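 MIC is recorded by eye as the lowest drug concentration that stops bacterial growth. Compound is serially diluted twofold in broth, starting at 200 μM final, and bacteria are added at roughly 10^5 cfu/mL. Incubation runs overnight at 37 °C under aerobic conditions, per CLSI guidance.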

[2] = Microsomal metabolic stability; type: in vitro ADME, human
Experimental: Compounds were initially prepared by dissolving them into DMSO at a final concentration of 10 mM. NADPH regenerating solutions A and B and mouse liver microsomes (CD-1) were obtained from BD Gentest (Woburn, Mass.). Ninety-six well deep well plates were obtained from MidWest Scientific Inc (Valley Park, Mo.).
Sample preparation for microsomal stability was modified from methods of Di, L., et al., Int J Pharm. 2005 Jun. 13; 297(1-2):110-9. A set of incubation times of 0, 15, 30, 60, 120, and 240 minutes were used. Mouse liver microsomal solutions were prepared by adding 58 μL of concentrated human or mouse liver microsomes (20 mg/mL protein concentration) to 1.756 mL of 0.1 M potassium phosphate buffer (pH 7.4) and 5 μL of 0.5 M EDTA to make a 0.6381 mg/mL (protein) microsomal solution. NADPH regenerating agent contained 113 μL of NADPH A, 23 μL of NADPH B, and 315 μL of 0.1 M potassium phosphate buffer (pH 7.4). The diluted test compound solutions (2 μL) were each added directly to a 1.79 mL of liver microsomal solution. This solution was mixed and 90 μL was transferred to 6 time points plates (each in triplicate wells). For the time 0 plate, 225 μL of cold acetonitrile with internal standard ([…] warfarin) was added to each well, followed by addition of NADPH regenerating agent (22.5 μL) and no incubation. For other five time points' plate, NADPH regenerating agent (22.5 μL) was added to each well to initiate the reaction. The plates were incubated at 37° C. for the required time, followed by quenching of the reaction by adding 225 μL of cold acetonitrile with internal standard (4 μg/ml warfarin). All of the plates were sealed and mixed well at 600 rpm for 10 minutes followed by centrifugation at 4000 rpm for 20 minutes. The supernatants (120 μL) were transferred to analytical plates for analysis by LCMS. LCMS conditions were described in the materials and instrumentation section above. The metabolic stability is evaluated via the half-life from least-squares fit of the multiple time points based on first-order kinetics.

[3] = plasma binding, % Bound, human plasma
[4] = microsomal metabolic stability half-life, human liver microsomes

Row | SMILES | Human [1, 3] | Minimal Inhibitory Concentrations (μM) S. aureus ΔClpP (S. aureus ΔClpP) | Human [2, 4] | Human ([1]; human, 4 h, pH 7.4) | Human ([2]; human, pH 7.4)
1 | Cc1ccc(NC(=O)N[C@@H](Cc2cccc(C)c2)C(=O)N[C@H]2COC(=O)[C@@H]3CCCN3C(=O)[C@H](C)NC(=O)[C@@H]3CCCCN3C(=O)[C@@H]3C[C@@H](O)CN3C2=O)cc1 [Compound 49, (S)—N-((6S,8AS,14AS,16R,20S,23AS)-16-HYDROXY-6-METHYL-5,8,14,19,23-PENTAOXOOCTADECAHYDRO-1H,5H,14H,19H-PYRIDO[2,1-I]DIPYRROLO[2,1-C:2′,1′-L][1]OXA[4,7,10,13]TETRAAZACYCLOHEXADECIN-20-YL)-3-(M-TOLYL)-2-(3-(P-TOLYL)UREIDO)PROPANAMIDE] | 98.7 ± 8.7% | >20 µM | 0.81 ± .813 h | – | –
2 | Cc1ccc(NC(=O)N[C@@H](Cc2cc(C)cc(C)c2)C(=O)N[C@@H]2C(=O)N3CCC[C@H]3C(=O)N3CCCC[C@H]3C(=O)N[C@@H](C)C(=O)N3C[C@H](C)C[C@H]3C(=O)O[C@H]2C)cc1 [Compound 2, (S)-3-(3,5-DIMETHYLPHENYL)-2-(3-(P-TOLYL)UREIDO)-N-((2R,6S,8AS,14AS,20S,21S,23AS)-2,6,21-TRIMETHYL-5,8,14,19,23-PENTAOXOOCTADECAHYDRO-1H,5H,14H,19H-PYRIDO[2,1-I]DIPYRROLO[2,1-C:2′,1′-L][1]OXA[4,7,10,13]TETRAAZACYCLOHEXADECIN-20-YL)PROPANAMIDE] ({NH(4-Me-phenyl)-CO}-[Phe(3,5-Me2)][aThr]P[Pip]A[Pro(4R-Me)]; ester 2-C) | 99.3% | 200 µM | 0.62 h | – | –
3 | Cc1cccc(C[C@H](NC(=O)Nc2ccc(Cl)cc2F)C(=O)N[C@@H]2C(=O)N3CCC[C@H]3C(=O)N3CCCC[C@H]3C(=O)N[C@@H](C)C(=O)N3C[C@H](C)C[C@H]3C(=O)O[C@H]2C)c1 [Compound 3, (S)-2-(3-(4-CHLORO-2-FLUOROPHENYL)UREIDO)-3-(M-TOLYL)-N-((2R,6S,8AS,14AS,20S,21S,23AS)-2,6,21-TRIMETHYL-5,8,14,19,23-PENTAOXOOCTADECAHYDRO-1H,5H,14H,19H-PYRIDO[2,1-I]DIPYRROLO[2,1-C:2′,1′-L][1]OXA[4,7,10,13]TETRAAZACYCLOHEXADECIN-20-YL)PROPANAMIDE] ({NH(4-Cl-2-F-phenyl)-CO}-[Phe(3-Me)][aThr]P[Pip]A[Pro(4R-Me)]; ester 2-C) | – | 50 µM | – | 99.0 ± 0.1% | 4.68 ± 0.78 h
4 | Cc1cccc(C[C@H](NC(=O)Nc2ccc(Cl)cc2F)C(=O)N[C@@H]2C(=O)N3CCC[C@H]3C(=O)N3CCS(=O)(=O)C[C@H]3C(=O)N[C@@H](C)C(=O)N3C[C@H](C)C[C@H]3C(=O)O[C@H]2C)c1 [Compound 40, (S)-2-(3-(4-CHLORO-2-FLUOROPHENYL)UREIDO)-3-(M-TOLYL)-N-((6AS,12S,13S,15AS,17R,21S,23AR)-13,17,21-TRIMETHYL-2,2-DIOXIDO-6,11,15,20,23-PENTAOXOOCTADECAHYDRO-6H,11H,15H-DIPYRROLO[2,1-C:2′,1′-L][1,4]THIAZINO[3,4-I][1]OXA[4,7,10,13]TETRAAZACYCLOHEXADECIN-12-YL)PROPANAMIDE] ({NH(4-Cl-2-F-phenyl)-CO}-[Phe(3-Me)][aThr]P[X6]A[Pro(4R-Me)]; ester 2-C) | – | >20 µM | – | 98.5 ± 8.5% | 0.62 ± .623 h
5 | COc1cccc(C[C@H](NC(=O)Nc2ccc(Cl)cc2F)C(=O)N[C@H]2COC(=O)[C@@H]3C[C@@H](C)CN3C(=O)[C@H](C)NC(=O)[C@@H]3CN(C)CCN3C(=O)[C@@H]3CCCN3C2=O)c1 [Compound 19, (S)-2-(3-(4-CHLORO-2-FLUOROPHENYL)UREIDO)-3-(3-METHOXYPHENYL)-N-((6AS,12S,15AS,17R,21S,23AS)-2,17,21-TRIMETHYL-6,11,15,20,23-PENTAOXOOCTADECAHYDRO-2H,6H,11H,15H-PYRAZINO[2,1-I]DIPYRROLO[2,1-C:2′,1′-L][1]OXA[4,7,10,13]TETRAAZACYCLOHEXADECIN-12-YL)PROPANAMIDE] ({NH(4-Cl-2-F-phenyl)-CO}-[Phe(3-OMe)]SP[Piperazine(2S-CO,4-Me)]A[Pro(4R-Me)]; ester 2-C) | – | >20 µM | – | 98.9 ± 0.2% | 0.61 ± 0.06 h
6 | Cc1ccc(NC(=O)N[C@@H](Cc2cccc(C)c2)C(=O)N[C@@H]2C(=O)N3CCC[C@H]3C(=O)N3CCCC[C@H]3C(=O)N[C@@H](C)C(=O)N3C[C@H](C)C[C@H]3C(=O)O[C@H]2C)cc1 [Compound 1, (S)-3-(M-TOLYL)-2-(3-(P-TOLYL)UREIDO)-N-((2R,6S,8AS,14AS,20S,21S,23AS)-2,6,21-TRIMETHYL-5,8,14,19,23-PENTAOXOOCTADECAHYDRO-1H,5H,14H,19H-PYRIDO[2,1-I]DIPYRROLO[2,1-C:2′,1′-L][1]OXA[4,7,10,13]TETRAAZACYCLOHEXADECIN-20-YL)PROPANAMIDE] ({NH(4-Me-phenyl)-CO}-[Phe(3-Me)][aThr]P[Pip]A[Pro(4R-Me)]; ester 2-C) | 98.5% | 200 µM | 11.45 h | – | –
7 | Cc1cccc(C[C@H](NC(=O)Nc2ccc(Cl)cc2F)C(=O)N[C@H]2COC(=O)[C@@H]3C[C@@H](C)CN3C(=O)[C@H](C)NC(=O)[C@@H]3CN(C)CCN3C(=O)[C@@H]3CCCN3C2=O)c1 [Compound 13, (S)-2-(3-(4-CHLORO-2-FLUOROPHENYL)UREIDO)-3-(M-TOLYL)-N-((6AS,12S,15AS,17R,21S,23AS)-2,17,21-TRIMETHYL-6,11,15,20,23-PENTAOXOOCTADECAHYDRO-2H,6H,11H,15H-PYRAZINO[2,1-I]DIPYRROLO[2,1-C:2′,1′-L][1]OXA[4,7,10,13]TETRAAZACYCLOHEXADECIN-12-YL)PROPANAMIDE] ({NH(4-Cl-2-F-phenyl)-CO}-[Phe(3-Me)]SP[Piperazine(2S-CO,4-Me)]A[Pro(4R-Me)]; ester 2-C) | – | >20 µM | – | 97.0 ± 0.6% | 0.38 ± 0.04 h
8 | Cc1ccc(NC(=O)N[C@@H](Cc2cccc(C)c2)C(=O)N[C@@H]2C(=O)N3CCC[C@H]3C(=O)N3CCCC[C@H]3C(=O)N[C@@H](C)C(=O)N3C[C@@H](C)C[C@H]3C(=O)O[C@H]2C)cc1 [Compound 45, (S)-3-(M-TOLYL)-2-(3-(P-TOLYL)UREIDO)-N-((2S,6S,8AS,14AS,20S,21S,23AS)-2,6,21-TRIMETHYL-5,8,14,19,23-PENTAOXOOCTADECAHYDRO-1H,5H,14H,19H-PYRIDO[2,1-I]DIPYRROLO[2,1-C:2′,1′-L][1]OXA[4,7,10,13]TETRAAZACYCLOHEXADECIN-20-YL)PROPANAMIDE] ({NH(4-Me-phenyl)-CO}-[Phe(3-Me)][aThr]P[Pip]A[Pro(4S-Me)]; ester 2-C) | 97.3 ± 0.3% | >20 µM | 2.77 ± 0.3 h | – | –
